Experimental findings from patent US20070105873A1 (priority 2003, published 2007) are described below.

Test [1] deals with Alternaria solani. Description: Persistency against early blight on tomatoes caused by Alternaria solani, protective treatment. Conditions: tomato cultivar Goldene Prinzessin, sprayed with 16 ppm a.i., infected only after seven days, rating after a further 5 days; untreated 90. The format is in vivo. The method, then: The active compounds were prepared separately as a stock solution with 0.25% by weight of active compound in acetone or DMSO. 1% by weight of the emulsifier Uniperol® EL (wetting agent having emulsifying and dispersing action based on ethoxylated alkylphenols) was added to this solution. The stock solutions of the active compounds were diluted with water to the stated concentration.
2. Persistency Against Early Blight on Tomatoes Caused by Alternaria solani, Protective Treatment
Leaves of potted plants of the cultivar “Goldene Prinzessin” were sprayed to runoff point with an aqueous suspension having the concentration of active compound stated below.
To test for persistency, the leaves were infected with an aqueous spore suspension of Alternaria solani in a 2% strength biomalt solution having a density of 0.17×10^6 spores/ml only after seven days. The plants were then placed in a water-vapor-saturated chamber at 20-22° C. After a further 5 days, the disease on the untreated, but infected control plants had developed to such an extent that the infection could be determined visually in %.

The test system of test [2] is Phytophthora infestans. Format: in vivo. Conditions: tomato cultivar Goldene Prinzessin, sprayed with 250 ppm a.i., infected next day, visual rating after 6 days; untreated 80.

For `C[C@H](Nc1nc(C(N)=O)nc(Cl)c1-c1c(F)cc(F)cc1F)C(F)(F)F` [I-5, 4-chloro-6-((S)-2,2,2-trifluoro-1-methylethylamino)-5-(2,4,6-trifluorophenyl)-pyrimidine-2-carboxamide], in test [1], the “infection at 16 ppm of a.i. (% leaf area)” value worked out at 30 % leaf area. In test [2], the “infection at 250 ppm of a.i. (% leaf area)” value was found to be 0 % leaf area.

Turning to `CC(C)OC(=O)c1nc(Cl)c(-c2c(F)cc(F)cc2F)c(N[C@@H](C)C(F)(F)F)n1` [V-3, isopropyl 4-chloro-6-((S)-2,2,2-trifluoro-1-methylethylamino)-5-(2,4,6-trifluorophenyl)pyrimidine-2-carboxylate], the “infection at 250 ppm of a.i. (% leaf area)” value in test [2] is 5 % leaf area.
